These results are taken from patent publication US11254686B1 (Corvus Pharmaceuticals, Inc., priority 2017, dated 2022).

One data set deals with adenosine A2B receptor (Homo sapiens (Human), UniProt P29275). The data set is described as follows: Adenosine receptor activity assay (Table 1), A2B activity. It counts as biochemical. Conditions: for Ratio: A2A activity to A2B activity (A2A/A2B); for IC50: read-out: Ave A2B cAMP IC50.
For the next data set, the target named is adenosine A2A receptor (Homo sapiens (Human), UniProt P29274). The data set is described as follows: Adenosine receptor activity assay (Table 1), A2A activity. The class given is biochemical. As to conditions: read-out: Ave A2A cAMP IC50.
A further data set has as its target adenosine A1 receptor (Homo sapiens (Human), UniProt P30542). The data set is described as follows: A1 cAMP IC50 assay (Table 1). It counts as biochemical.
Another data set has as its target adenosine A3 receptor (Homo sapiens (Human), UniProt P0DMS8). The data set can be described thus: A3 cAMP IC50 assay (Table 1). The class given is biochemical.
Data set [1] in a line: Hepatocyte (Hep) intrinsic clearance, rat. It counts as in vitro ADME. As to conditions: hepatocytes.
Data set [2] is described as follows: Hepatocyte (Hep) intrinsic clearance, human. It counts as in vitro ADME. Conditions: hepatocytes.

Sequence of adenosine A3 receptor (P0DMS8 whole entry): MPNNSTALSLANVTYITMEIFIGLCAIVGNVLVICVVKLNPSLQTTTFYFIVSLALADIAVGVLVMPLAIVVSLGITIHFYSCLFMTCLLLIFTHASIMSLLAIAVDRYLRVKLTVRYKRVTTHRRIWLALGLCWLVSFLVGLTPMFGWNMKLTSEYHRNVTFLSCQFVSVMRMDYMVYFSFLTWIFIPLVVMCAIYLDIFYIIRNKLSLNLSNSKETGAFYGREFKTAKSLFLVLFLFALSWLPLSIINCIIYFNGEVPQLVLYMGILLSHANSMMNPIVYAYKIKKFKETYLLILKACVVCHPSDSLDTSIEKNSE
Sequence of adenosine A2B receptor (P29275 whole entry): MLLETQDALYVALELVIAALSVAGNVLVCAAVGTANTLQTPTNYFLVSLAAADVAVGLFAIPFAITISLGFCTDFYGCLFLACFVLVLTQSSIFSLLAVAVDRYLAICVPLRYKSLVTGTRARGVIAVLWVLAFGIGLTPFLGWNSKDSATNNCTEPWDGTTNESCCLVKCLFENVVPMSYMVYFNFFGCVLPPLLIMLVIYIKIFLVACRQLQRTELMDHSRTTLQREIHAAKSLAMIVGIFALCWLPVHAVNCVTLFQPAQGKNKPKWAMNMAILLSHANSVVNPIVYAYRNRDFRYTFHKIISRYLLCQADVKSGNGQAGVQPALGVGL
Sequence of adenosine A1 receptor (P30542 whole entry): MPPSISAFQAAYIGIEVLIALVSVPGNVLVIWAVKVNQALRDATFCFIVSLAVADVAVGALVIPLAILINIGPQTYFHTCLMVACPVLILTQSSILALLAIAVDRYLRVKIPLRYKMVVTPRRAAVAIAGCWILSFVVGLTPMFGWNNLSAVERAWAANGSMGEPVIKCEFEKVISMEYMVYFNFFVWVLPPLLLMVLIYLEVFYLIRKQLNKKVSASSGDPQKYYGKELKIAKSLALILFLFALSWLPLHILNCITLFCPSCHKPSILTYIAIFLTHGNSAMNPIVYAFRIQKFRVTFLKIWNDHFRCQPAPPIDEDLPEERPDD
Sequence of adenosine A2A receptor (P29274 whole entry): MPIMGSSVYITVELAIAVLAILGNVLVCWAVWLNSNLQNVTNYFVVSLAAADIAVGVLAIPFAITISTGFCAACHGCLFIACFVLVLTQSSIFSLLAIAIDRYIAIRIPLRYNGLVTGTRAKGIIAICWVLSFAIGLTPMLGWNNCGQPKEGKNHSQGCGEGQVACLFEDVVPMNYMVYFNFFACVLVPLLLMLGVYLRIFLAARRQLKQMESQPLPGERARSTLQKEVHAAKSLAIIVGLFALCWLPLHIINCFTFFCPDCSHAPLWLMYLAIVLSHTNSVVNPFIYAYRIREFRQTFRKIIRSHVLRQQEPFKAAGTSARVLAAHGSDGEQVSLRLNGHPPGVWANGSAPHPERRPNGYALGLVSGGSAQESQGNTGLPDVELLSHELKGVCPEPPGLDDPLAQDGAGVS

As usually defined, the IC50 is the concentration at which inhibition is half-maximal. By hepatocyte CLint is commonly meant the rate of metabolic loss divided by the concentration. Higher therefore signals rapid turnover. As to `C[C@H](Nc1nc(C(=O)N2CC[C@H](O)C2)c2sccc2n1)c1cccc(F)c1` [Example Z129, (2-(((S)-1-(3-Fluorophenyl)ethyl)amino)thieno[3,2-d]pyrimidin-4-yl)((S)-3-hydroxypyrrolidin-1-yl)methanone], the Ratio on adenosine A2B receptor was 22.27. For the same compound, the IC50 on adenosine A2B receptor was 10 to 50 nM; at adenosine A2A receptor, 100 to 500 nM; at adenosine A1 receptor, more than 500 nM; on adenosine A3 receptor it was 50 to 100 nM. In addition, the values for the intrinsic clearance (hepatocyte CLint) in data set [1] and in data set [2] were 43 µL/min/1e6 cells and 9.59 µL/min/1e6 cells, respectively.

As for `COc1cc(F)cc(CNc2nc(C(=O)N3CC(O)C3)c3sccc3n2)c1` [Example Z137, (2-((3-Fluoro-5-methoxybenzyl)amino)thieno[3,2-d]pyrimidin-4-yl)(3-hydroxyazetidin-1-yl)methanone], at adenosine A2B receptor, the Ratio came to 19.91. The IC50 on adenosine A2B receptor was 10 to 50 nM; at adenosine A2A receptor, 100 to 500 nM; at adenosine A1 receptor, more than 500 nM; on adenosine A3 receptor it was 10 to 50 nM. Further, the hepatocyte CLint was found to be 66.8 µL/min/1e6 cells in data set [1] and 74.8 µL/min/1e6 cells in data set [2].

Regarding `C[C@H](Nc1nc(C(=O)N2CC(O)C2)c2sccc2n1)c1cccnc1` [Example Z138, (S)-(3-Hydroxyazetidin-1-yl)(2-((1-(pyridin-3-yl)ethyl)amino)thieno[3,2-d]pyrimidin-4-yl)methanone], at adenosine A2B receptor, the Ratio was 14.05. Besides, the IC50 on adenosine A2B receptor was 10 to 50 nM; on adenosine A2A receptor, 100 to 500 nM; on adenosine A1 receptor, more than 500 nM; against adenosine A3 receptor it was more than 500 nM. The hepatocyte CLint in data set [1] turned out to be 10.3 µL/min/1e6 cells; in data set [2], 1.14 µL/min/1e6 cells.

Consider `COC1CN(C(=O)c2nc(N[C@@H](C)c3cccnc3)nc3ccsc23)C1` [Example Z139, (S)-(3-Methoxyazetidin-1-yl)(2-((1-(pyridin-3-yl)ethyl)amino)thieno[3,2-d]pyrimidin-4-yl)methanone], for which the Ratio at adenosine A2B receptor is reported as 8.08. The IC50 on adenosine A2B receptor was less than 10 nM; at adenosine A2A receptor it was 50 to 100 nM; against adenosine A1 receptor, more than 500 nM; against adenosine A3 receptor, more than 500 nM. The hepatocyte CLint in data set [1] is 24.2 µL/min/1e6 cells; in data set [2], 7.67 µL/min/1e6 cells.

Turning to `N#Cc1cncc(CNc2nc(C(=O)N3CCCC3)c3sccc3n2)c1` [Example Z141, 5-(((4-(Pyrrolidine-1-carbonyl)thieno[3,2-d]pyrimidin-2-yl)amino)methyl)nicotinonitrile], the Ratio at adenosine A2B receptor is on record as 35.53. In addition, the IC50 at adenosine A2B receptor was 10 to 50 nM; on adenosine A2A receptor, more than 500 nM; against adenosine A1 receptor, more than 500 nM; against adenosine A3 receptor it was more than 500 nM. Further, the hepatocyte CLint in data set [1] came out at 102 µL/min/1e6 cells; in data set [2], 38.7 µL/min/1e6 cells.

With `C[C@H](Nc1nc(C(=O)NCCO)c2sccc2n1)c1cccnc1` [Example Z145, (S)—N-(2-Hydroxyethyl)-2-((1-(pyridin-3-yl)ethyl)amino)thieno[3,2-d]pyrimidine-4-carboxamide], the IC50 on adenosine A2B receptor was in the range of 10 to 50 nM; at adenosine A2A receptor, 100 to 500 nM. Also, the values for the hepatocyte CLint in data set [1] and in data set [2] were 8.46 µL/min/1e6 cells and 1.92 µL/min/1e6 cells, respectively.

For the compound `C[C@H](Nc1nc(C(=O)NC2CCC2)c2sccc2n1)c1ccccn1` [Example Z147, (S)—N-Cyclobutyl-2-((1-(pyridin-2-yl)ethyl)amino)thieno[3,2-d]pyrimidine-4-carboxamide], the Ratio on adenosine A2B receptor is on record as 2.82. Also, the IC50 on adenosine A2B receptor was less than 10 nM; at adenosine A2A receptor, 10 to 50 nM; against adenosine A1 receptor, more than 500 nM; against adenosine A3 receptor, 100 to 500 nM. The values for the hepatocyte CLint in data set [1] and in data set [2] were 68.3 µL/min/1e6 cells and 43.5 µL/min/1e6 cells, respectively.

As for `CNc1cc2nc(N[C@@H](C)c3cccnc3)nc(C(=O)N3CCCC3)c2s1` [Example Z152, (S)-(6-(Methylamino)-2-((1-(pyridin-3-yl)ethyl)amino)thieno[3,2-d]pyrimidin-4-yl)(pyrrolidin-1-yl)methanone], the Ratio at adenosine A2B receptor was found to be 53.70. The IC50 was less than 10 nM on adenosine A2B receptor, 100 to 500 nM at adenosine A2A receptor, more than 500 nM at adenosine A1 receptor and 50 to 100 nM on adenosine A3 receptor. Also, the values for the hepatocyte CLint in data set [1] and in data set [2] were 38.3 µL/min/1e6 cells and 12.3 µL/min/1e6 cells, respectively.

In the case of `C[C@H](Nc1nc(C(=O)NC2CC(O)C2)c2sccc2n1)c1ccccn1` (stereo partly drawn) [Example Z158, N-((1s,3R)-3-Hydroxycyclobutyl)-2-(((S)-1-(pyridin-2-yl)ethyl)amino)thieno[3,2-d]pyrimidine-4-carboxamide], the Ratio at adenosine A2B receptor amounted to 9.39. Further, the hepatocyte CLint was determined as 22.6 µL/min/1e6 cells in data set [1] and 20.6 µL/min/1e6 cells in data set [2].

As for `C[C@H](Nc1nc(C(=O)N2CCC2)c2sccc2n1)c1cncc(F)c1` [Example Z164, (S)-Azetidin-1-yl(2-((1-(5-fluoropyridin-3-yl)ethyl)amino)thieno[3,2-d]pyrimidin-4-yl)methanone], the Ratio at adenosine A2B receptor amounted to 49.96. Besides, the IC50 on adenosine A2B receptor was less than 10 nM; at adenosine A2A receptor it was 50 to 100 nM; at adenosine A1 receptor, more than 500 nM; on adenosine A3 receptor, more than 500 nM. Moreover, the hepatocyte CLint in data set [1] turned out to be 34 µL/min/1e6 cells; in data set [2], 13.5 µL/min/1e6 cells.

Turning to `C[C@H](Nc1nc(C(=O)N2CC[C@H](O)C2)c2sccc2n1)c1cncc(F)c1` [Example Z165, (2-(((S)-1-(5-Fluoropyridin-3-yl)ethyl)amino)thieno[3,2-d]pyrimidin-4-yl)((S)-3-hydroxypyrrolidin-1-yl)methanone], the Ratio on adenosine A2B receptor worked out at 73.68. Besides, the IC50 on adenosine A2B receptor was less than 10 nM; on adenosine A2A receptor, more than 500 nM; at adenosine A1 receptor it was more than 500 nM; against adenosine A3 receptor, more than 500 nM. For the same compound, the hepatocyte CLint in data set [1] worked out at 14.8 µL/min/1e6 cells; in data set [2] it was 5.66 µL/min/1e6 cells.

Take `C[C@H](Nc1nc(C(=O)N2CC[C@@H](O)C2)c2sccc2n1)c1cncc(F)c1` [Example Z166, (2-(((S)-1-(5-Fluoropyridin-3-yl)ethyl)amino)thieno[3,2-d]pyrimidin-4-yl)((R)-3-hydroxypyrrolidin-1-yl)methanone]: at adenosine A2B receptor, the Ratio was found to be 62.32. The IC50 at adenosine A2B receptor is 10 to 50 nM; at adenosine A2A receptor, more than 500 nM; against adenosine A1 receptor, more than 500 nM; against adenosine A3 receptor, more than 500 nM. Besides, the results for the hepatocyte CLint in data set [1] and in data set [2] were 16.6 µL/min/1e6 cells and 4.51 µL/min/1e6 cells, respectively.

Turning to `O=C(NCCO)c1nc(NCc2cc(F)cc(F)c2)nc2ccsc12` [Example Z169, 2-((3,5-Difluorobenzyl)amino)-N-(2-hydroxyethyl)thieno[3,2-d]pyrimidine-4-carboxamide], on adenosine A2B receptor, the Ratio is 26.40. Also, the IC50 at adenosine A2B receptor was less than 10 nM; on adenosine A2A receptor, 100 to 500 nM; on adenosine A1 receptor, more than 500 nM; on adenosine A3 receptor it was more than 500 nM. The results for the hepatocyte CLint in data set [1] and in data set [2] were 43.7 µL/min/1e6 cells and 55.6 µL/min/1e6 cells, respectively.

`C[C@H](Nc1nc(C(=O)N2CCC2)c2sc(N)cc2n1)c1ccccn1` [Example Z189, (S)-(6-Amino-2-((1-(pyridin-2-yl)ethyl)amino)thieno[3,2-d]pyrimidin-4-yl)(azetidin-1-yl)methanone]: the Ratio on adenosine A2B receptor was found to be 36.15. Moreover, the IC50 at adenosine A2B receptor is less than 10 nM; on adenosine A2A receptor, 100 to 500 nM; against adenosine A1 receptor it was more than 500 nM; on adenosine A3 receptor it was 50 to 100 nM.

On to `C[C@H](Nc1nc(C(=O)NC2CC2)c2sccc2n1)c1ccccn1` [Example Z192, (S)—N-Cyclopropyl-2-((1-(pyridin-2-yl)ethyl)amino)thieno[3,2-d]pyrimidine-4-carboxamide], for which, on adenosine A2B receptor, the Ratio turned out to be 6.93. Moreover, the IC50 was less than 10 nM on adenosine A2B receptor, 10 to 50 nM at adenosine A2A receptor, 50 to 100 nM against adenosine A1 receptor and more than 500 nM at adenosine A3 receptor.
